Source: patent US20250346593A1, “IMIDAZO(1,2-1)PYRIDINE DERIVATIVES AS RIPK2 INHIBITORS” (Interline Therapeutics, Inc., priority 2022, published 2025)
Where two headings read alike, the source gives them in different places.

How the values were obtained:
[1] = test system: NF-κB pathway (SEAP) in THP1-Dual cells; experiment: THP-1 Dual cell SEAP assay (L18-MDP stimulated); assay type: cell-based; details: read-out: NFkB THP1 IC50
[2] = target: GST-RIPK2 fusion protein (human RIPK2 amino acids 1-310) (Homo sapiens (Human), UniProt O43353); experiment: RIPK2 binding competition assay (TR-FRET, Tracer 199)
[3] = read-out: RIPK2 IC50, RIPK2 binding competition assay

Chain of GST-RIPK2 fusion protein (human RIPK2 amino acids 1-310) (O43353 1-310): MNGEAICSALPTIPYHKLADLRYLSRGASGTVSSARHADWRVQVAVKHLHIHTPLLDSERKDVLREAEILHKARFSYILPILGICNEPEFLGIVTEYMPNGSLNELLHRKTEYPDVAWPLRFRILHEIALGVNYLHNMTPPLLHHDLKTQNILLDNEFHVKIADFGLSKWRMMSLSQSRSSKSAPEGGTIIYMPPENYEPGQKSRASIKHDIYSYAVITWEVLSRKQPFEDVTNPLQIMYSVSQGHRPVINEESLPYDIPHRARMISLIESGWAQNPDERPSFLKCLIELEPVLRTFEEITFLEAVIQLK

Row | SMILES | IC50 ([1]; Homo sapiens, THP1-Dual) [nM] | IC50 [2] [nM] | IC50 [1] [nM] | IC50 [2, 3] [nM]
1 | CCCS(=O)(=O)Nc1cc(-c2cnc3cc(OC)c(S(=O)(=O)C(C)(C)C)cn23)cc(F)c1F [Example 266, N-(5-(6-(tert-butylsulfonyl)-7-methoxyimidazo[1,2-a]pyridin-3-yl)-2,3-difluorophenyl)propane-1-sulfonamide] | 250 to 1000 | 1 to 2.5 |  | 
2 | CCCS(=O)(=O)Nc1cc(-c2cnc3cc(OC)c(S(=O)(=O)C(C)(C)C)cn23)cc(OC)c1F [Example 267, N-(5-(6-(tert-butylsulfonyl)-7-methoxyimidazo[1,2-a]pyridin-3-yl)-2-fluoro-3-methoxyphenyl)propane-1-sulfonamide] | 250 to 1000 | 1 to 2.5 |  | 
3 | CCCS(=O)(=O)Nc1cc(-c2cnc3cc(OC)c(S(=O)(=O)C(C)(C)C)cn23)cc(C)c1OC [Example 268, N-(5-(6-(tert-butylsulfonyl)-7-methoxyimidazo[1,2-a]pyridin-3-yl)-2-methoxy-3-methylphenyl)propane-1-sulfonamide] | 50 to 250 | 1 to 2.5 |  | 
4 | CCCS(=O)(=O)Nc1cccc(-c2cnc3cc(OC)c(S(=O)(=O)C(C)(C)C)cn23)c1 [Example 269, N-(3-(6-(tert-butylsulfonyl)-7-methoxyimidazo[1,2-a]pyridin-3-yl)phenyl)propane-1-sulfonamide] | 250 to 1000 | 1 to 2.5 |  | 
5 | CCCS(=O)(=O)Nc1cc(-c2cnc3cc(OC)c(S(=O)(=O)C(C)(C)C)cn23)cc(F)c1OCC [Example 270, N-(5-(6-(tert-butylsulfonyl)-7-methoxyimidazo[1,2-a]pyridin-3-yl)-2-ethoxy-3-fluorophenyl)propane-1-sulfonamide] | 250 to 1000 | 1 to 2.5 |  | 
6 | CCCS(=O)(=O)Nc1cc(-c2cnc3cc(OC)c(S(=O)(=O)C(C)(C)C)cn23)ccc1OC(F)F [Example 271, N-(5-(6-(tert-butylsulfonyl)-7-methoxyimidazo[1,2-a]pyridin-3-yl)-2-(difluoromethoxy)phenyl) propane-1-sulfonamide] | < 50 | 1 to 2.5 |  | 
7 | COc1cc2ncc(-c3cc(F)c(OC)c(NS(C)(=O)=O)c3)n2cc1S(=O)(=O)C(C)(C)C [Example 272, N-(5-(6-(tert-butylsulfonyl)-7-methoxyimidazo[1,2-a]pyridin-3-yl)-3-fluoro-2-methoxyphenyl)methane-sulfonamide] | 50 to 250 | 1 to 2.5 |  | 
8 | CCCS(=O)(=O)Nc1cc(-c2cnc3cc(OC)c(S(=O)(=O)C4CC4)cn23)cc(OC)c1OC [Example 274, N-(5-(6-(cyclopropylsulfonyl)-7-methoxyimidazo[1,2-a]pyridin-3-yl)-2,3-dimethoxyphenyl)propane-1-sulfonamide] | 50 to 250 | < 1 |  | 
9 | CCCS(=O)(=O)Nc1cc(-c2cnc3cc(OC)c(S(=O)(=O)C(C)(C)C)cn23)cc(F)c1OC [Example 275, N-(5-(6-(tert-butylsulfonyl)-7-methoxyimidazo[1,2-a]pyridin-3-yl)-3-fluoro-2-methoxyphenyl)propane-1-sulfonamide] | < 50 | < 1 |  | 
10 | CCS(=O)(=O)Nc1cccc(-c2cnc3cc(OC)c(S(=O)(=O)C(C)(C)C)cn23)c1 [Example 276, N-(3-(6-(tert-butylsulfonyl)-7-methoxyimidazo[1,2-a]pyridin-3-yl)phenyl)ethanesulfon-amide] |  |  | 250 to 1000 | 2.5 to 20
11 | COc1cc2ncc(-c3cccc(NS(=O)(=O)C(C)(C)C)c3)n2cc1S(=O)(=O)C(C)(C)C [Example 277, N-(3-(6-(tert-butylsulfonyl)-7-methoxyimidazo[1,2-a]pyridin-3-yl)phenyl)-2-methylpropane-2-sulfonamide] | < 50 | 2.5 to 20 |  | 
12 | COc1cc2ncc(-c3cccc(NS(=O)(=O)C(C)C)c3)n2cc1S(=O)(=O)C(C)(C)C [Example 278, N-(3-(6-(tert-butylsulfonyl)-7-methoxyimidazo[1,2-a]pyridin-3-yl)phenyl)propane-2-sulfonamide] | 250 to 1000 | 2.5 to 20 |  | 
13 | COc1cc2ncc(-c3cc(F)c(OC)c(NS(=O)(=O)CC(C)C)c3)n2cc1S(=O)(=O)C(C)(C)C [Example 279, N-(5-(6-(tert-butylsulfonyl)-7-methoxyimidazo[1,2-a]pyridin-3-yl)-3-fluoro-2-methoxyphenyl)-2-methylpropane-1-sulfonamide] | < 50 | < 1 |  | 
14 | COc1cc2ncc(-c3cccc(NS(=O)(=O)CC(C)C)c3)n2cc1S(=O)(=O)C(C)(C)C [Example 280, N-(3-(6-(tert-butylsulfonyl)-7-methoxyimidazo[1,2-a]pyridin-3-yl)phenyl)-2-methylpropane-1-sulfonamide] | 250 to 1000 | 1 to 2.5 |  | 
15 | CCCS(=O)(=O)Nc1cc(-c2cnn3ccc(S(=O)(=O)C(C)(C)C)cc23)ccc1OC [Example 281, N-(5-(5-(tert-butylsulfonyl)pyrazolo[1,5-a]pyridin-3-yl)-2-methoxyphenyl)propane-1-sulfonamide] | 250 to 1000 | 2.5 to 20 |  | 
16 | CCCS(=O)(=O)Nc1cc(C#N)cc(-c2cnc3cc(OC)c(S(=O)(=O)C(C)(C)C)cn23)c1 [Example 282, N-(3-(6-(tert-butylsulfonyl)-7-methoxyimidazo[1,2-a]pyridin-3-yl)-5-cyanophenyl)propane-1-sulfonamide] | > 1000 | 2.5 to 20 |  | 
17 | CCCS(=O)(=O)Nc1cc(OC)cc(-c2cnn3ccc(S(=O)(=O)C(C)(C)C)cc23)c1 [Example 283, N-(3-(5-(tert-butylsulfonyl)pyrazolo[1,5-a]pyridin-3-yl)-5-methoxyphenyl)propane-1-sulfonamide] | 250 to 1000 | 2.5 to 20 |  | 
18 | CCCS(=O)(=O)Nc1cc(-c2cnc3cc(OC)c(S(=O)(=O)C(C)(C)C)cn23)cc(F)c1OC(F)F [Example 284, N-(5-(6-(tert-butylsulfonyl)-7-methoxyimidazo[1,2-a]pyridin-3-yl)-2-(difluoromethoxy)-3-fluorophenyl)propane-1-sulfonamide] | 50 to 250 | 1 to 2.5 |  | 
19 | COc1cc2ncc(-c3cc(NS(C)(=O)=O)c(OC)c(OC)c3)n2cc1S(=O)(=O)C(C)(C)C [Example 285, N-(5-(6-(tert-butylsulfonyl)-7-methoxyimidazo[1,2-a]pyridin-3-yl)-2,3-dimethoxyphenyl)methane sulfonamide] | < 50 |  |  | < 1
20 | CCCS(=O)(=O)Nc1cc(-c2cnc3cc(OC)c(S(=O)(=O)C(C)(C)C)cn23)cnc1OC(F)F [Example 286, N-(5-(6-(tert-butylsulfonyl)-7-methoxyimidazo[1,2-a]pyridin-3-yl)-2-(difluoromethoxy)pyridin-3-yl)propane-1-sulfonamide] | > 1000 | 2.5 to 20 |  | 
21 | CCCS(=O)(=O)Nc1ccc(F)c(-c2cnc3cc(OC)c(S(=O)(=O)C(C)(C)C)cn23)c1 [Example 287, N-(3-(6-(tert-butylsulfonyl)-7-methoxyimidazo[1,2-a]pyridin-3-yl)-4-fluorophenyl)propane-1-sulfonamide] | > 1000 |  |  | > 20
22 | CCCS(=O)(=O)Nc1cc(-c2cnc3cc(OC)c(S(=O)(=O)C4CC4)cn23)ccc1OC [Example 288, N-(5-(6-(cyclopropylsulfonyl)-7-methoxyimidazo[1,2-a]pyridin-3-yl)-2-methoxyphenyl)propane-1-sulfonamide] | > 1000 | 2.5 to 20 |  | 
23 | CCCS(=O)(=O)Nc1cc(COC)cc(-c2cnc3cc(OC)c(S(=O)(=O)C(C)(C)C)cn23)c1 [Example 289, N-(3-(6-(tert-butylsulfonyl)-7-methoxyimidazo[1,2-a]pyridin-3-yl)-5-(methoxymethyl)phenyl) propane-1-sulfonamide] | 250 to 1000 | 2.5 to 20 |  | 
24 | CCCS(=O)(=O)Nc1cc(-c2cnc3cc(OC)c(S(=O)(=O)C(C)(C)C)cn23)cc(C)c1F [Example 290, N-(5-(6-(tert-butylsulfonyl)-7-methoxyimidazo[1,2-a]pyridin-3-yl)-2-fluoro-3-methylphenyl)propane-1-sulfonamide] | > 1000 | 2.5 to 20 |  | 
25 | CCCS(=O)(=O)Nc1cc(-c2cnc3cc(OC)c(S(=O)(=O)C(C)(C)C)cn23)ccc1F [Example 291, N-(5-(6-(tert-butylsulfonyl)-7-methoxyimidazo[1,2-a]pyridin-3-yl)-2-fluorophenyl)propane-1-sulfonamide] | 250 to 1000 | 2.5 to 20 |  | 
26 | CCCS(=O)(=O)Nc1cc(F)cc(-c2cnc3cc(OC)c(S(=O)(=O)C(C)(C)C)cn23)c1F [Example 292, N-(3-(6-(tert-butylsulfonyl)-7-methoxyimidazo[1,2-a]pyridin-3-yl)-2,5-difluorophenyl)propane-1-sulfonamide] | > 1000 | 2.5 to 20 |  | 
27 | CCCS(=O)(=O)Nc1ccc(-c2cnc3cc(OC)c(S(=O)(=O)C(C)(C)C)cn23)cc1OC(F)F [Example 293, N-(4-(6-(tert-butylsulfonyl)-7-methoxyimidazo[1,2-a]pyridin-3-yl)-2-(difluoromethoxy)phenyl) propane-1-sulfonamide] | > 1000 |  |  | > 20
28 | CCS(=O)(=O)Nc1cc(-c2cnc3cc(OC)c(S(=O)(=O)C(C)(C)C)cn23)cc(F)c1OC [Example 294, N-(5-(6-(tert-butylsulfonyl)-7-methoxyimidazo[1,2-a]pyridin-3-yl)-3-fluoro-2-methoxyphenyl)ethane-sulfonamide] | < 50 | < 1 |  | 
29 | CCCS(=O)(=O)Nc1cc(OC(F)F)cc(-c2cnc3cc(OC)c(S(=O)(=O)C(C)(C)C)cn23)c1 [Example 295, N-(3-(6-(tert-butylsulfonyl)-7-methoxyimidazo[1,2-a]pyridin-3-yl)-5-(difluoromethoxy)phenyl) propane-1-sulfonamide] | 50 to 250 | 1 to 2.5 |  | 
30 | CC(C)(C)S(=O)(=O)c1ccn2ncc(-c3cc(F)nc(NCCCO)c3)c2c1 [Example 296, 3-((4-(5-(tert-butylsulfonyl)pyrazolo [1,5-a]pyridin-3-yl)-6-fluoropyridin-2-yl)amino)propan-1-ol] | < 50 | 1 to 2.5 |  | 
